The values that follow come from US20090118332A1, “Therapeutic Agents - 551” (AstraZeneca AB, priority 2006, published 2009).

In the first experiment the target is T1, human Fatty Acid Synthase (Homo sapiens, UniProt P49327).
T1 construct: made in house
T1 sequence (P49327 whole entry): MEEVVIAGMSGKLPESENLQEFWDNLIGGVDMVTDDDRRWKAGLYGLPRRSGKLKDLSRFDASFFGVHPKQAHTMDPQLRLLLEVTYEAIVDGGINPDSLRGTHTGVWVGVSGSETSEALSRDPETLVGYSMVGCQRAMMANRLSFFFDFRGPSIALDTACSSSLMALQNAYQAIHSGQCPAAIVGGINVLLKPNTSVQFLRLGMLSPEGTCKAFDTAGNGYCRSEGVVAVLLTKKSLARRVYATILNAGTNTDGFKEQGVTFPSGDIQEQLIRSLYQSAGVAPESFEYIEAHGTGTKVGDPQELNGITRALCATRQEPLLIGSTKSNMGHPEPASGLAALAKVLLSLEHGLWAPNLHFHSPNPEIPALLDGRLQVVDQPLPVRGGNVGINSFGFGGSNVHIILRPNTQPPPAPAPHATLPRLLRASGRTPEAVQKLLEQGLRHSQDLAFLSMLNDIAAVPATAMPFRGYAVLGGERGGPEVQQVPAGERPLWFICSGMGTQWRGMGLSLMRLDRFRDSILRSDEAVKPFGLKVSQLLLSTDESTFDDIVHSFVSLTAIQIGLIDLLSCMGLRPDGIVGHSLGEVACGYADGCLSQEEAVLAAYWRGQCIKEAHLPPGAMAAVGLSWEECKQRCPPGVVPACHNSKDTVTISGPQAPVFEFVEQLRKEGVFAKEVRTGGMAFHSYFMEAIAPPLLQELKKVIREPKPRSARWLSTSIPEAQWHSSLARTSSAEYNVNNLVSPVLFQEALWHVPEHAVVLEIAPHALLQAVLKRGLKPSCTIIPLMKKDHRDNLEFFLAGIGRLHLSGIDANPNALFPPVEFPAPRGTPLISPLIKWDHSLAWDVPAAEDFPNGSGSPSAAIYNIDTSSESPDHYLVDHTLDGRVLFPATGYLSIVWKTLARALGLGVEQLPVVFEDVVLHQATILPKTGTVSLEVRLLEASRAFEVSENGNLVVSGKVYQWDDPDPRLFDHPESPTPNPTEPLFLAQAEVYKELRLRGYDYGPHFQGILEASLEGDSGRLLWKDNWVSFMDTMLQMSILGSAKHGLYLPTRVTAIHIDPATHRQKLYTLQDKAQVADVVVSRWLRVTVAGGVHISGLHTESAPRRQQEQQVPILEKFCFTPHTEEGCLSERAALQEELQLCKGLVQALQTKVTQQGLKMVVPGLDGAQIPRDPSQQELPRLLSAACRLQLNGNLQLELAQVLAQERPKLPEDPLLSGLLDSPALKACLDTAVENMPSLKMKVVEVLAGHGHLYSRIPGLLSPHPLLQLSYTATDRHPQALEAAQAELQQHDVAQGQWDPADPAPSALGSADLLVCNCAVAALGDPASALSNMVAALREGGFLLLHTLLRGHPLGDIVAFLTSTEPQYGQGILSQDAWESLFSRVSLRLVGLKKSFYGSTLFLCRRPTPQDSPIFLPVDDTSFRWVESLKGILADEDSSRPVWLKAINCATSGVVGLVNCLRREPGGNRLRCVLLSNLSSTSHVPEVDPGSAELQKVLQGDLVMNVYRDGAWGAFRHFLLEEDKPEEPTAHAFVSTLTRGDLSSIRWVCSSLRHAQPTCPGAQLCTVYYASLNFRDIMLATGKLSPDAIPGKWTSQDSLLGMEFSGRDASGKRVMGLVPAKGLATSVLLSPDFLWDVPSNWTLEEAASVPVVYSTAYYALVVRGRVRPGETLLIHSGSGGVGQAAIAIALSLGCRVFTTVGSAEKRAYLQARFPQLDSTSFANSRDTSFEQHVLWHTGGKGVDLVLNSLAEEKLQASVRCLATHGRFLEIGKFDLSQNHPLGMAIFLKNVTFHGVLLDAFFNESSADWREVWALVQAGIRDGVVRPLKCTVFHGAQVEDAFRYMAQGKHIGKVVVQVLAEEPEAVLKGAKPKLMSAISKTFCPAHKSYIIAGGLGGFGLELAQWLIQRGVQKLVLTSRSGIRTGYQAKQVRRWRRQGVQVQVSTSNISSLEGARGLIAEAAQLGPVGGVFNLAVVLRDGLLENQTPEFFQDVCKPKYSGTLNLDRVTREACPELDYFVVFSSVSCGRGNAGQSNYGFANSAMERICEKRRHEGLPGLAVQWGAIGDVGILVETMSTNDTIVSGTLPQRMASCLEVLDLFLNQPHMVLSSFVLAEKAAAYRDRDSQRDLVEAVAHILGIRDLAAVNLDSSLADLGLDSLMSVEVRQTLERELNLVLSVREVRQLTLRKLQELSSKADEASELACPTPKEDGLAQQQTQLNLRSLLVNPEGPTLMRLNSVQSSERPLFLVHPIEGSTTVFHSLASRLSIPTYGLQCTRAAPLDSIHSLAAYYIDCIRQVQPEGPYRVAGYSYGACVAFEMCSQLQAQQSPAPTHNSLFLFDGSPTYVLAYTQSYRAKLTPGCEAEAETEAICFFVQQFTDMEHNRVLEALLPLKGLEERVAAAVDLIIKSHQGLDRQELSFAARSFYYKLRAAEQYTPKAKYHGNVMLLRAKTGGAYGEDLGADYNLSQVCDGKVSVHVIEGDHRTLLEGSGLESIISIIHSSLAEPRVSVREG
Kind of experiment: Human FAS enzyme assay (decrease in NADPH fluorescence). Format: biochemical. The following applies: % inhibition at a concentration of 100 μmolar. Put shortly: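 In-house human FAS was preincubated with compound and NADPH for 15 min at room temperature in 0.1 M Tris pH 7.5 with EDTA, glutathione and BSA. Malonyl CoA and acetyl CoA (500 μM and 150 μM in the added mix) were then added for 60 min. IC50 came from time-zero-subtracted NADPH fluorescence (340/460 nm).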
Turning to `CCCOCCNC(=O)Nc1cc(C(=O)N2CCC(c3ccc(C#N)cc3)CC2)ccc1C` [Example 164, 3-[5-[4-(4-cyanophenyl)piperidine-1-carbonyl]-2-methyl-phenyl]-1-(2-propoxyethyl)urea], the inhibition (in general, the drop in the measured response relative to a control, in per cent) at 100 µM stood at 95%.
With `Cc1ccc(C(=O)N2CCC(c3ccc(C(=O)N(C)C)cc3)CC2)cc1NC(=O)NCc1ccccc1` [Example 123, 4-[1-[3-(benzylcarbamoylamino)-4-methyl-benzoyl]-4-piperidyl]-N,N-dimethyl-benzamide], the inhibition at 100 µM was 79.7%.
On the same count and under the same terms, the same measure for `Cc1ccc(C(=O)N2CCC(c3ccc(C#N)cc3)CC2)cc1NC(=O)NCC#N` [Example 167, 3-(cyanomethyl)-1-[5-[4-(4-cyanophenyl)piperidine-1-carbonyl]-2-methyl-phenyl]urea]: 90.3%; for `Cc1ccc(NC(=O)N2CCOCC2)cc1C(=O)N1CCC(c2ccc(C#N)cc2)CC1` [Example 28, N-[3-[4-(4-cyanophenyl)piperidine-1-carbonyl]-4-methyl-phenyl]morpholine-4-carboxamide]: 83.1%; for `CNCCNC(=O)Nc1cc(C(=O)N2CCC(c3ccc(F)cc3)CC2)ccc1C` [Example 400, 1-[5-[4-(4-fluorophenyl)piperidine-1-carbonyl]-2-methylphenyl]-3-(2-methylaminoethyl)urea]: 66.7%.
Same read-out and setting: the same measure for `COC(=O)CCNC(=O)Nc1cc(C(=O)N2CCC(c3ccc(C#N)cc3)CC2)ccc1C` [Example 45, methyl 3-[[5-[4-(4-cyanophenyl)piperidine-1-carbonyl]-2-methyl-phenyl]carbamoylamino]propanoate]: 91.8%; for `Cc1ccc(C(=O)N2CCC(c3ccc(C#N)cc3)CC2)cc1NC(=O)NCc1ccoc1` [Example 89, 1-[5-[4-(4-cyanophenyl)piperidine-1-carbonyl]-2-methyl-phenyl]-3-(3-furylmethyl)urea]: 93.1%; for `Cc1ccc(C(=O)N2CCC(c3ccc(C#N)cc3)CC2)cc1NC(=O)N(C)C1CCOCC1` [Example 396, 3-[5-[4-(4-cyanophenyl)piperidine-1-carbonyl]-2-methylphenyl]-1-methyl-1-(oxan-4-yl)urea]: 62.9%.
The same measure, in the same setting: as for `Cc1ccc(C(=O)N2CCC(c3ccc(C#N)cc3)CC2)cc1NC(=O)N[C@@H](CCS(C)(=O)=O)C(=O)OC(C)(C)C` [Example 180, tert-butyl (2S)-2-[[5-[4-(4-cyanophenyl)piperidine-1-carbonyl]-2-methyl-phenyl]carbamoylamino]-4-methylsulfonyl-butanoate], the figure is 92%.
Consider `Cc1ccc(C(=O)N2CCC(c3ccc(C#N)cc3)CC2)cc1NC(=O)NCCC(=O)Nc1cnoc1C` [Example 241, 3-[[5-[4-(4-cyanophenyl)piperidine-1-carbonyl]-2-methyl-phenyl]carbamoylamino]-N-(5-methyl-1,2-oxazol-4-yl)propanamide], for which the inhibition at 100 µM was determined as 92.4%.
The same measure, in the same setting: the same measure for `Cc1ccc(C(=O)N2CCC(c3ccc(C#N)cc3)CC2)cc1NC(=O)NC1CCCN(S(C)(=O)=O)C1` (centres unmarked) [Example 296, 1-[5-[4-(4-cyanophenyl)piperidine-1-carbonyl]-2-methyl-phenyl]-3-(1-methylsulfonyl-3-piperidyl)urea]: 103%; for `Cc1ccc(C(=O)N2CCC(c3ccc(C#N)cc3)CC2)cc1NC(=O)NCCN` [Example 103, 3-(2-aminoethyl)-1-[5-[4-(4-cyanophenyl)piperidine-1-carbonyl]-2-methyl-phenyl]urea]: 91.8%; for `Cc1ccc(C(=O)N2CCC(c3ccc(C#N)cc3)CC2)cc1NC(=O)N[C@@H]1CCOC1` [Example 199, 1-[5-[4-(4-cyanophenyl)piperidine-1-carbonyl]-2-methyl-phenyl]-3-[(3R)-oxolan-3-yl]urea]: 96.3%.
On the same count and under the same terms, the same measure for `Cc1ccc(C(=O)N2CCC(c3ccc(C#N)cc3)CC2)cc1NC(=O)NCC(C)(C)N` [Example 203, 3-(2-amino-2-methyl-propyl)-1-[5-[4-(4-cyanophenyl)piperidine-1-carbonyl]-2-methyl-phenyl]urea]: 91%; for `Cc1ccc(C(=O)N2CCC(c3ccc(F)cc3)CC2)cc1NC(=O)NC(C)C` [Example 325, 1-[5-[4-(4-fluorophenyl)piperidine-1-carbonyl]-2-methyl-phenyl]-3-propan-2-yl-urea]: 72.6%; for `Cc1ccc(C(=O)N2CCC(c3ccc(C#N)cc3)CC2)cc1NC(=O)NCCNC(N)=O` [Example 234, 3-[2-(carbamoylamino)ethyl]-1-[5-[4-(4-cyanophenyl)piperidine-1-carbonyl]-2-methyl-phenyl]urea]: 91.5%.
On the same count and under the same terms, the same measure for `CCS(=O)(=O)N1CC(NC(=O)Nc2cc(C(=O)N3CCC(c4ccc(C#N)cc4)CC3)ccc2C)C1` [Example 311, 3-[5-[4-(4-cyanophenyl)piperidine-1-carbonyl]-2-methyl-phenyl]-1-(1-ethylsulfonylazetidin-3-yl)urea]: 105%; for `Cc1ccc(C(=O)N2CCC(c3ccc(C#N)cc3)CC2)cc1NC(=O)NC(CO)CO` [Example 186, 1-[5-[4-(4-cyanophenyl)piperidine-1-carbonyl]-2-methyl-phenyl]-3-(1,3-dihydroxypropan-2-yl)urea]: 86.4%.
Turning to `Cc1ccc(C(=O)N2CCC(c3ccc(C#N)cc3)CC2)cc1NC(=O)NCCc1ccncc1` [Example 62, 1-[5-[4-(4-cyanophenyl)piperidine-1-carbonyl]-2-methyl-phenyl]-3-(2-pyridin-4-ylethyl)urea], the inhibition at 100 µM is 101%.
Same read-out and setting: the same measure for `Cc1ccc(C(=O)N2CCC(c3ccc(C#N)cc3)CC2)cc1NC(=O)NCCc1cccs1` [Example 63, 1-[5-[4-(4-cyanophenyl)piperidine-1-carbonyl]-2-methyl-phenyl]-3-(2-thiophen-2-ylethyl)urea]: 93.4%; for `Cc1ccc(NC(=O)NC2CCCC2)cc1C(=O)N1CCC(c2ccc(C#N)cc2)CC1` [Example 21, 1-[3-[4-(4-cyanophenyl)piperidine-1-carbonyl]-4-methyl-phenyl]-3-cyclopentyl-urea]: 78.8%.
The same measure, in the same setting: the same measure for `Cc1ccc(C(=O)N2CCC(c3ccc(C#N)cc3)CC2)cc1NC(=O)NCCCN1CCCC1` [Example 74, 1-[5-[4-(4-cyanophenyl)piperidine-1-carbonyl]-2-methyl-phenyl]-3-(3-pyrrolidin-1-ylpropyl)urea]: 89.6%; for `Cc1ccc(C(=O)N2CCC(c3ccc(C#N)cc3)CC2)cc1NC(=O)NCc1ncccn1` [Example 291, 1-[5-[4-(4-cyanophenyl)piperidine-1-carbonyl]-2-methyl-phenyl]-3-(pyrimidin-2-ylmethyl)urea]: 89.6%.
Same read-out and setting: as for `Cc1ccc(C(=O)N2CCC(c3ccc(C#N)cc3)CC2)cc1NC(=O)NC1CCN(S(=O)(=O)N(C)C)CC1` [Example 285, 1-[5-[4-(4-cyanophenyl)piperidine-1-carbonyl]-2-methyl-phenyl]-3-[1-(dimethylsulfamoyl)-4-piperidyl]urea], the figure is 98.7%.
Consider `Cc1cc(C)n(CCNC(=O)Nc2cc(C(=O)N3CCC(c4ccc(C#N)cc4)CC3)ccc2C)n1` [Example 76, 1-[5-[4-(4-cyanophenyl)piperidine-1-carbonyl]-2-methyl-phenyl]-3-[2-(3,5-dimethylpyrazol-1-yl)ethyl]urea], for which the inhibition at 100 µM amounted to 97.5%.
Still for that read-out and setting: the same measure for `Cc1ccc(C(=O)N2CCC(c3ccc(C(F)(F)F)cc3)CC2)cc1NC(=O)NCCN` [Example 342, 3-(2-aminoethyl)-1-[2-methyl-5-[4-[4-(trifluoromethyl)phenyl]piperidine-1-carbonyl]phenyl]urea]: 82.8%.
Same read-out and setting: as for `Cc1ccc(C(=O)N2CCC(c3ccc(C#N)cc3)CC2)cc1NC(=O)NCCNC(=O)C(=O)O` [Example 104, 2-[[5-[4-(4-cyanophenyl)piperidine-1-carbonyl]-2-methyl-phenyl]carbamoylamino]ethylcarbamoylformic acid], the figure is 74.5%; as for `CC(=O)NC(C)(C)CNC(=O)Nc1cc(C(=O)N2CCC(c3ccc(C#N)cc3)CC2)ccc1C` [Example 261, N-[1-[[5-[4-(4-cyanophenyl)piperidine-1-carbonyl]-2-methyl-phenyl]carbamoylamino]-2-methyl-propan-2-yl]acetamide], 85.9%.

Staying with this experiment, now noted: FAS enzyme assay, IC50 from fitted sigmoid curves.
With `COC(=O)C(Cc1ccc(F)cc1)NC(=O)Nc1cc(C(=O)N2CCC(c3ccc(C#N)cc3)CC2)ccc1C` (centres unmarked) [Methyl 2-[[5-[4-(4-cyanophenyl)piperidine-1-carbonyl]-2-methylphenyl]carbamoylamino]-3-(4-fluorophenyl)propanoate], the “IC50, inhibition of human Fatty Acid Synthase” value is “do not have IC50s in the range of about 0.001 μM to about 30 μM”.
The same measure, in the same setting: as for `COC(=O)C(CCn1cnnn1)NC(=O)Nc1cc(C(=O)N2CCC(c3ccc(C#N)cc3)CC2)ccc1C` (centres unmarked) [Methyl 2-[[5-[4-(4-cyanophenyl)piperidine-1-carbonyl]-2-methylphenyl]carbamoylamino]-4-(tetrazol-1-yl)butanoate], the entry is “do not have IC50s in the range of about 0.001 μM to about 30 μM”; as for `COCCN(C)C(=O)Nc1cc(C(=O)N2CCC(c3ccc(C#N)cc3)CC2)ccc1C` [3-[5-[4-(4-cyanophenyl)piperidine-1-carbonyl]-2-methylphenyl]-1-(2-methoxyethyl)-1-methylurea], “do not have IC50s in the range of about 0.001 μM to about 30 μM”.
Still for that read-out and setting: as for `Cc1ccc(C(=O)N2CCC(c3ccc(C#N)cc3)CC2)cc1NC(=O)N(C)CC1CCCO1` (centres unmarked) [3-[5-[4-(4-cyanophenyl)piperidine-1-carbonyl]-2-methylphenyl]-1-methyl-1-(oxolan-2-ylmethyl)urea], the entry is “do not have IC50s in the range of about 0.001 μM to about 30 μM”.
